Paper PMC7287031 (Pharmacology Research & Perspectives, 2020)
Where two headings read alike, the source gives them in different places.

Experiments:
CYP2J2 = target: T1, CYP2J2 (Homo sapiens, UniProt P51589); assay: Enzyme kinetics with recombinant CYP2J2 and scaling to HLM; type: in vitro ADME
T1 construct: purchased BD Biosciences
T1 sequence (P51589 1-502): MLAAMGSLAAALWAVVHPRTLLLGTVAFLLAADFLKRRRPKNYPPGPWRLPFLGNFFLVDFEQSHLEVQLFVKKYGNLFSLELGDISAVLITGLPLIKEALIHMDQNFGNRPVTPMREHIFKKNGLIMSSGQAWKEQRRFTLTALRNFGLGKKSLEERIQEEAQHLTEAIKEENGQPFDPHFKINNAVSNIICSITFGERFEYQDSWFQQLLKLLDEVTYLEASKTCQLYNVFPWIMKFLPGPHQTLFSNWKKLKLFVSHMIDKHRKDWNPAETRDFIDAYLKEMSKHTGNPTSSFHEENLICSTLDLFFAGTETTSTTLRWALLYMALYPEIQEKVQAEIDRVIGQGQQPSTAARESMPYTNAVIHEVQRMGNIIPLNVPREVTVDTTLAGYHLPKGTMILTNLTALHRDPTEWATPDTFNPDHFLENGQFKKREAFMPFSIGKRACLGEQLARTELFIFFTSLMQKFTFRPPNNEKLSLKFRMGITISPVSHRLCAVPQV
Experimental: In vitro incubations were carried out in 100‐mM potassium phosphate buffer (pH 7.4) and 5‐mM MgCl2 with a total volume of 200 µL. Substrate and either human liver microsomes (HLM, BD Biosciences, mixed gender pool of n = 50) or recombinant human enzymes (BD Biosciences) were added and pre‐incubated for 3 minutes at 37°C. The reaction was started by addition of a fresh solution of NADPH (1 mmol/L final concentration). The samples were incubated at 37°C with agitation of 500 rpm. For incubations with CYP2A6, CYP2C9, CYP2C18, and CYP4A11, the phosphate buffer was replaced by TRIS buffer (100 mmol/L, pH 7.4) and for flavin‐containing monooxygenases (FMOs), a glycine buffer (50 mM, pH 9.5) was used.
The enzymatic reaction was stopped and the protein was precipitated by addition of an equal volume of methanol. After 30 min at −80°C, the samples were centrifuged at 30'000 x g for 15 min. The supernatant was withdrawn. Aliquots were analyzed by LSC and the supernatant was diluted with water to obtain a final solution containing less than 20% of the organic solvent. For samples of low substrate concentration, supernatants were evaporated to dryness under nitrogen, then re‐suspended in water containing less than 20% of methanol. Samples were analyzed by HPLC combined with radiodetection. […]

[1] = Rat ADME study: excretion, mass balance, metabolite profiling with radiolabeled ribociclib; type: in vivo
Experimental: ADME studies (including QWBA in pigmented and non‐pigmented rats) using radiolabeled ribociclib were conducted in rat and dog. Relevant institutional and national guides for the care and use of laboratory animals were followed.
Metabolite profiling was conducted on plasma, urine, bile, and feces samples in the rat and dog ADME studies, and further metabolite profiling on plasma and milk was conducted in a dedicated rat milk excretion study.
Plasma samples obtained from these studies were extracted with equal volumes of acetonitrile. Additional extractions of the protein pellet with acetonitrile and/or acetone were conducted as needed to maximize radioactivity recovery. Feces samples were initially extracted with two to four volumes of acetonitrile. Additional extractions of the pellet following centrifugation and removal of supernatant were conducted with acetonitrile and/or acetone as needed to maximize radioactivity recovery. Urine and bile samples were analyzed directly following centrifugation. Radioactivity recoveries following the centrifugation step were measured by LSC. Milk samples were extracted with two volumes of acetonitrile, following centrifugation and removal of supernatant, the pellets were re‐suspended in 100 µL of water and re‐extracted with 200 µL acetonitrile.
Metabolite profiling in the ADME studies was conducted using liquid chromatography‐mass spectrometry. Radioactivity profiles were generated by diversion of the majority of the post‐column flow into 96‐well yttrium silicate scintillation‐coated plates (Deepwell Lumaplates; Perkin Elmer Life and Analytical Sciences Inc), by means of Gilson FC204 fraction collectors (Gilson). Metabolites were identified by mass spectrometry (Waters QTOF operating under MassLynx 4.1) and, where feasible, by comparison with authentic reference standards.

[2] = Rat pharmacokinetic studies: plasma PK of ribociclib after single i.v. or oral dose; type: in vivo; conditions: for Vd: read-out: Vss; for half-life: read-out: t½ (converted)
Experimental: ADME studies (including QWBA in pigmented and non‐pigmented rats) using radiolabeled ribociclib were conducted in rat and dog. Relevant institutional and national guides for the care and use of laboratory animals were followed. […]

[3] = rat, oral dosing of radiolabeled ribociclib
[4] = female, Hanover Wistar, iv, rat f (3), i.v., 4.2 mg base/kg
[5] = female, rat f (3), po, 11.1 mg base/kg
[6] = female, rat f (4), po, 51.2 mg base/kg
[7] = male, Hanover Wistar, rat m (3), po, 9.8 mg base/kg
[8] = male, Sprague Dawley, 5 mg/kg, rat m (3), po, 5.0 mg base/kg
[9] = male, Sprague Dawley, iv, 2 mg/kg, rat m (2), i.v., 2.0 mg base/kg

Which “fm,CYP” value (CYP2J2; CYP2J2, share of total CYP-mediated metabolism in HLM) does the source give for `CN(C)C(=O)c1cc2cnc(Nc3ccc(N4CCNCC4)cn3)nc2n1C1CCCC1` [ribociclib, Ribociclib] here?
Its value is 0.8%.

And the fumic (CYP2J2; CYP2J2 incubation)?
Its fumic is 0.86.

What about the “Recovery of radioactivity in mass balance study” value ([1]; rat) of the same compound?
The value was “approximately 90%”.

And the Absorption ([1]; rat ADME study, derived from AUC of total radiolabeled components after i.v. and p.o. dosing)?
Its Absorption is 66%.

What about the “dose eliminated in bile (radioactivity)” value ([1]; rat, i.v.) of the same compound?
The value was 61.4 % of dose.

And the “ribociclib in feces of bile duct-cannulated rats” value ([1]; rat, i.v.)?
The value was 8 % of the dose.

What about the “unchanged ribociclib recovered in bile” value ([1]; rat, i.v.) of the same compound?
The value was 1 % of the dose.

What about the “radioactivity found in feces” value [1, 3] of the same compound?
Its value is 84.0%.

And the “radioactivity found in urine” value [1, 3]?
The value was 5.9%.

What about the ribociclib in feces ([1]; rat, p.o.) of the same compound?
Its ribociclib in feces is 22.4 % of the oral dose.

And the “unchanged ribociclib in urine” value ([1]; rat, p.o.)?
The value was 2.7 % of the dose.

And the Vd [2, 4]?
Its Vd is 12.2 L/kg.

What about the half-life [2, 4] of the same compound?
Its half-life is 1.9 h.

And the AUC(0-t) ([2]; female, Hanover Wistar, rat, iv, 4.2 mg base/kg)?
The AUC(0-t) was 508 ng·h/mL.

What about the clearance ([2]; female, iv, rat f (3), 4.2 mg base/kg) of the same compound?
The clearance was 130 mL/min/kg.

What about the Cmax [2, 5] of the same compound?
The Cmax was 59.1 ng/mL.

And the Tmax [2, 5]?
Its Tmax is 2 h.

What about the AUC(0-t) ([2]; female, rat f (3), po, 11.1 mg base/kg, AUC interval 24 h) of the same compound?
Its AUC(0-t) is 360 ng·h/mL.

What about the Cmax [2, 6] of the same compound?
The Cmax was 1090 ng/mL.

And the Tmax [2, 6]?
The Tmax was 0.3 h.

What about the half-life [2, 6] of the same compound?
The half-life was 2 h.

What about the AUC(0-t) ([2]; female, rat, po, 51.2 mg base/kg) of the same compound?
Its AUC(0-t) is 3100 ng·h/mL.

What about the clearance ([2]; male, Hanover Wistar, iv, rat m (3), 4.1 mg base/kg) of the same compound?
Its clearance is 46.7 mL/min/kg.

What about the half-life ([2]; male, Hanover Wistar, iv, rat m (3), i.v., 4.1 mg base/kg) of the same compound?
The half-life was 3.2 h.

And the Cmax [2, 7]?
Its Cmax is 130 ng/mL.

What about the Tmax [2, 7] of the same compound?
The Tmax was 4 h.

What about the AUC(0-t) ([2]; male, Hanover Wistar, rat m (3), po, 9.8 mg base/kg, AUC interval 24 h) of the same compound?
Its AUC(0-t) is 1340 ng·h/mL.

What about the AUC(0-t) ([2]; male, Hanover Wistar, rat, iv, 4.1 mg base/kg) of the same compound?
Its AUC(0-t) is 1440 ng·h/mL.

And the Cmax [2, 8]?
The Cmax was 126 ng/mL.

And the Tmax [2, 8]?
Its Tmax is 2 h.

And the bioavailability [2, 8]?
The bioavailability was 55%.

What about the Vd [2, 9] of the same compound?
Its Vd is 9.9 L/kg.

What about the half-life [2, 9] of the same compound?
The half-life was 2.8 h.

What about the AUC(0-t) ([2]; male, Sprague Dawley, rat, iv, 2 mg/kg) of the same compound?
The AUC(0-t) was 587 ng·h/mL.

What about the AUC(0-t) ([2]; male, Sprague Dawley, rat, po, 5 mg/kg) of the same compound?
The AUC(0-t) was 672 ng·h/mL.

And the clearance ([2]; male, iv, rat m (2), 2.0 mg base/kg)?
The clearance was 51.7 mL/min/kg.

And the Vd ([2]; male, iv, rat m (3), i.v., 4.1 mg base/kg)?
Its Vd is 7.9 L/kg.

And the bioavailability ([2]; male, rat m (3), po, 9.8 mg base/kg)?
The bioavailability was 37%.
